Laboratory results taken from PubChem BioAssay AID330 (DTP/NCI, 2004).
Where “and” joins values, the source holds several entries; their conditions need not be identical. Equal values may be shown once. Toxic doses and inconclusive results are not listed. How the source made its calls: active means survival T/C of 150% or more; inactive means T/C below 125% in these data.

Test system: P388 leukemia ip, CD2F1 mice, survival T/C
Assay: NCI In Vivo Anticancer Drug Screen. Data for tumor model P388 Leukemia (intraperitoneal) in CD2F1 (CDF1) mice
Conditions: endpoint: median survival time, higher = longer survival
Method in brief: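 Mice carrying the transplanted tumor received test compound or vehicle. Survival was recorded in each group, and the value is the treated-group measurement divided by that of the vehicle-treated control group.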

[1] = dose: 6.25 mg/kg/injection, schedule: Q01DX009 (ip), vehicle: saline with Tween-80
[2] = dose: 12.5 mg/kg/injection, schedule: Q01DX009 (ip), vehicle: saline with Tween-80
[3] = dose: 25.0 mg/kg/injection, schedule: Q01DX009 (ip), vehicle: saline with Tween-80
[4] = dose: 50.0 mg/kg/injection, schedule: Q01DX009 (ip), vehicle: saline with Tween-80
[5] = dose: 200.0 mg/kg/injection, schedule: Q01DX009 (ip), vehicle: Klucel (hydroxypropylcellulose) (HPC)
[6] = dose: 100.0 mg/kg/injection, schedule: Q01DX001 (ip), vehicle: Klucel (hydroxypropylcellulose) (HPC)
[7] = dose: 200.0 mg/kg/injection, schedule: Q01DX001 (ip), vehicle: Klucel (hydroxypropylcellulose) (HPC)
[8] = dose: 400.0 mg/kg/injection, schedule: Q01DX001 (ip), vehicle: Klucel (hydroxypropylcellulose) (HPC)
[9] = dose: 50.0 mg/kg/injection, schedule: Q01DX005 (ip), vehicle: Klucel (hydroxypropylcellulose) (HPC)
[10] = dose: 100.0 mg/kg/injection, schedule: Q01DX005 (ip), vehicle: Klucel (hydroxypropylcellulose) (HPC)
[11] = dose: 100.0 mg/kg/injection, schedule: Q01DX009 (ip), vehicle: saline with Tween-80
[12] = dose: 200.0 mg/kg/injection, schedule: Q01DX009 (ip), vehicle: saline with Tween-80
[13] = dose: 50.0 mg/kg/injection, schedule: Q01DX009 (ip), vehicle: saline
[14] = dose: 100.0 mg/kg/injection, schedule: Q01DX009 (ip), vehicle: saline
[15] = dose: 50.0 mg/kg/injection, schedule: Q01DX009 (ip), vehicle: Klucel (hydroxypropylcellulose) (HPC)
[16] = dose: 100.0 mg/kg/injection, schedule: Q01DX009 (ip), vehicle: Klucel (hydroxypropylcellulose) (HPC)
[17] = dose: 200.0 mg/kg/injection, schedule: Q01DX005 (ip), vehicle: Klucel (hydroxypropylcellulose) (HPC)

Measured: T/C

CCOC(=O)C1CCCN(C)C1 (configuration not stated)
inactive: dose: 100.0 mg/kg/injection, schedule: Q04DX003 (ip), vehicle: Klucel (hydroxypropylcellulose) (HPC) 104 % of control | dose: 200.0 mg/kg/injection, schedule: Q04DX003 (ip), vehicle: Klucel (hydroxypropylcellulose) (HPC) 100 % of control | dose: 400.0 mg/kg/injection, schedule: Q04DX003 (ip), vehicle: Klucel (hydroxypropylcellulose) (HPC) 100 % of control

O=C(/C=C/c1ccc(O)c(O)c1)NCC(=O)NC(Cc1ccccc1)C(=O)O (configuration not stated)
inactive: dose: 50.0 mg/kg/injection, schedule: Q01DX005 (ip), vehicle: saline with Tween-80 99 % of control | dose: 100.0 mg/kg/injection, schedule: Q01DX005 (ip), vehicle: saline with Tween-80 100 % of control | dose: 200.0 mg/kg/injection, schedule: Q01DX005 (ip), vehicle: saline with Tween-80 103 % of control

Cc1c(O)c2c(c(O)c1Cc1ccc(C#N)cc1)C(=O)c1ccccc1C2=O
inactive: [1] 94 % of control | [2] 91 % of control | [3] 90 % of control | [4] 91 % of control | [5] 89 % of control

CCOC(=O)/C=C1/CC(C#N)(C(=O)NN)CO1 (configuration not stated)
inactive: [6] 102 % of control | [7] 110 % of control | [8] 100 % of control

[N-]=[N+]=CC(=O)C1(c2ccccc2)OC1c1ccc([N+](=O)[O-])cc1 (configuration not stated)
inactive: dose: 12.5 mg/kg/injection, schedule: Q01DX001 (ip), vehicle: saline with Tween-80 94 % of control | dose: 25.0 mg/kg/injection, schedule: Q01DX001 (ip), vehicle: saline with Tween-80 93 % of control | dose: 50.0 mg/kg/injection, schedule: Q01DX001 (ip), vehicle: saline with Tween-80 86 % of control and 95 % of control

CC1OC(OC2C(Oc3cc(O)c4c(c3)OC(c3ccc(O)cc3)CC4=O)OC(CO)C(O)C2O)C(O)C(O)C1O (configuration not stated)
inactive: dose: 50.0 mg/kg/injection, schedule: Q01DX005 (ip), vehicle: saline 98 % of control | dose: 100.0 mg/kg/injection, schedule: Q01DX005 (ip), vehicle: saline 97 % of control | dose: 200.0 mg/kg/injection, schedule: Q01DX005 (ip), vehicle: saline 98 % of control

Cc1cccc(Nc2nc(C)nc3[nH]cc(C)c23)c1
inactive: [9] 92 % of control | [10] 90 % of control

COc1cc(OC)c(NC(=O)NNC(=O)C(=O)NC2CC2)cc1Cl
inactive: [4] 99 % of control | [11] 97 % of control | [12] 98 % of control

CNC(=O)O/N=C(\CN=[N+]=[N-])C(C)(C)C
inactive: dose: 0.78 mg/kg/injection, schedule: Q01DX009 (ip), vehicle: saline with Tween-80 93 % of control

COc1cc(Cc2nnc(N)nc2N)cc(OC)c1OC
inactive: [6] 100 % of control | [7] 114 % of control | [8] 96 % of control

Cc1c2nc(N)nc-2ccc2[nH]c(N)nc12
inactive: dose: 0.5 mg/kg/injection, schedule: Q01DX009 (ip), vehicle: Klucel (hydroxypropylcellulose) (HPC) 102 % of control | dose: 1.0 mg/kg/injection, schedule: Q01DX009 (ip), vehicle: Klucel (hydroxypropylcellulose) (HPC) 108 % of control | dose: 2.0 mg/kg/injection, schedule: Q01DX009 (ip), vehicle: Klucel (hydroxypropylcellulose) (HPC) 108 % of control | dose: 4.0 mg/kg/injection, schedule: Q01DX009 (ip), vehicle: Klucel (hydroxypropylcellulose) (HPC) 102 % of control

Cc1cc(NC(=S)SCc2ccc(Cl)cc2)c([N+](=O)[O-])cc1C
inactive: [13] 92 % of control | dose: 50.0 mg/kg/injection, schedule: Q01DX009 (ip), vehicle: suspension in saline 108 % of control | [14] 97 % of control | dose: 200.0 mg/kg/injection, schedule: Q01DX009 (ip), vehicle: saline 92 % of control | dose: 200.0 mg/kg/injection, schedule: Q01DX009 (ip), vehicle: suspension in saline 98 % of control

Cc1ccc(S(=O)(=O)N/N=C/c2ccc(Cl)cc2O)cc1
inactive: dose: 12.5 mg/kg/injection, schedule: Q01DX005 (ip), vehicle: distilled water + Tween-80 102 % of control | dose: 25.0 mg/kg/injection, schedule: Q01DX005 (ip), vehicle: distilled water + Tween-80 99 % of control | dose: 50.0 mg/kg/injection, schedule: Q01DX005 (ip), vehicle: distilled water + Tween-80 100 % of control | dose: 100.0 mg/kg/injection, schedule: Q01DX005 (ip), vehicle: distilled water + Tween-80 100 % of control | dose: 200.0 mg/kg/injection, schedule: Q01DX005 (ip), vehicle: distilled water + Tween-80 100 % of control

COC(=O)C1(CC(=O)c2ccc(F)cc2)NC(=S)NC(=O)C1C#N (configuration not stated)
inactive: dose: 60.0 mg/kg/injection, schedule: Q01DX005 (ip), vehicle: saline with Tween-80 99 % of control | dose: 120.0 mg/kg/injection, schedule: Q01DX005 (ip), vehicle: saline with Tween-80 98 % of control | dose: 240.0 mg/kg/injection, schedule: Q01DX005 (ip), vehicle: saline with Tween-80 106 % of control

CC(=O)Nc1ccc(CC#N)cc1
inactive: dose: 5.0 mg/kg/injection, schedule: Q01DX009 (ip), vehicle: saline sonified 100 % of control | dose: 10.0 mg/kg/injection, schedule: Q01DX009 (ip), vehicle: saline sonified 100 % of control | dose: 20.0 mg/kg/injection, schedule: Q01DX009 (ip), vehicle: saline sonified 113 % of control

CC(C)OC(=O)C1(N)CCCC1
inactive: [13] 97 % of control | [14] 87 % of control | dose: 100.0 mg/kg/injection, schedule: Q04DX003 (ip), vehicle: saline 95 % of control | dose: 200.0 mg/kg/injection, schedule: Q04DX003 (ip), vehicle: saline 104 % of control

CCC1([N+](=O)[O-])CN(C)CC2CCCCN2C1 (configuration not stated)
inactive: dose: 25.0 mg/kg/injection, schedule: Q04DX002 (ip), vehicle: water 95 % of control | dose: 50.0 mg/kg/injection, schedule: Q04DX002 (ip), vehicle: water 101 % of control | dose: 100.0 mg/kg/injection, schedule: Q04DX002 (ip), vehicle: saline 100 % of control | dose: 100.0 mg/kg/injection, schedule: Q04DX002 (ip), vehicle: water 103 % of control

Cn1c(=O)n2n(c1=O)C1C3C4C3C3C5(COCC135)C42 (configuration not stated)
inactive: [15] 97 % of control | [16] 92 % of control | [5] 97 % of control

Cc1cc(C)n2nc(CC#N)c(C#N)c2n1
inactive: dose: 12.5 mg/kg/injection, schedule: Q01DX009 (ip), vehicle: Klucel (hydroxypropylcellulose) (HPC) 109 % of control | dose: 25.0 mg/kg/injection, schedule: Q01DX009 (ip), vehicle: Klucel (hydroxypropylcellulose) (HPC) 100 % of control and 107 % of control and 97 % of control | [15] 100 % of control and 105 % of control and 109 % of control | [16] 123 % of control and 94 % of control and 97 % of control

CCOC(=O)c1cc(OC(C)=O)c2ccc(OC)c(OC)c2c1
inactive: dose: 6.25 mg/kg/injection, schedule: Q01DX009 (ip), vehicle: distilled water + Tween-80 101 % of control and 105 % of control and 90 % of control | dose: 50.0 mg/kg/injection, schedule: Q01DX009 (ip), vehicle: distilled water + Tween-80 91 % of control and 93 % of control and 97 % of control | dose: 100.0 mg/kg/injection, schedule: Q01DX009 (ip), vehicle: distilled water + Tween-80 91 % of control | dose: 200.0 mg/kg/injection, schedule: Q01DX009 (ip), vehicle: distilled water + Tween-80 93 % of control

C=C(C)c1nc(N)nc(Nc2ccccc2)n1
inactive: [9] 103 % of control | [10] 111 % of control | [17] 106 % of control

NC(=O)c1cnc(N)nc1
inactive: [1] 93 % of control | [2] 91 % of control | [3] 98 % of control | [4] 94 % of control | [11] 98 % of control | [12] 106 % of control

O=S(Cl)C(Cl)=C(Cl)Cl (configuration not stated)
inactive: [9] 106 % of control | [10] 104 % of control | [17] 103 % of control

C/C(=N\NC(=S)NCc1ccccc1)c1nccnc1C
inactive: dose: 3.13 mg/kg/injection, schedule: Q01DX005 (ip), vehicle: saline with Tween-80 104 % of control | dose: 6.25 mg/kg/injection, schedule: Q01DX005 (ip), vehicle: saline with Tween-80 109 % of control and 112 % of control
